Assay results as given in US11691989B2, “Macrocyclic indoles as Mcl-1 inhibitors” (ASCENTAGE PHARMA (SUZHOU) CO., LTD., priority 2018, dated 2023).
In brackets after ≈: the same amount, converted by molar mass. Where two headings read alike, the source gives them in different places.

Key:
[1] = test system: NCI-H929 cells; assay: Cell viability assay (NCI-H929 cells), CCK-8; assay type: cell-based; conditions: 5% FBS
In short: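 NCI-H929 cells (20000/well) exposed to serially diluted compounds for 24 h at 37 °C, 5% CO2. Viability by CCK-8, absorbance at 450 nm after 1-4 h, normalized to vehicle-treated cells. IC50 by nonlinear regression.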

[2] = test system: OPM-2 cells; assay: Cell viability assay (OPM-2 cells), CCK-8; assay type: cell-based; conditions: 5% FBS
In short: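 OPM-2 myeloma cells (20000/well) incubated with serially diluted compound for 24 h at 37 °C, 5% CO2. Viability read by CCK-8 (4 h) absorbance at 450 nm, normalised to vehicle; IC50 from nonlinear regression.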

[3] = test system: MV-4-11 cells; assay: MV-4-11 cell viability assay, CCK-8; assay type: cell-based
Procedure: MV-4-11 cells were obtained from American Type Culture Collection (ATCC). […]
The effect of representative Compounds of the Disclosure on cell viability was determined using Cell Counting Kit-8 (CCK-8) assay according to the manufacturer's instructions. 95 μL of MV-4-11 cell suspension (20000 cells/well) in culture medium were seeded into 96-well plates and cultured 4 hrs. Each tested compound was serially diluted in DMSO, then 5 μL of the compound or DMSO was diluted in 95 μL medium once more. At last, 5 μL of the compound dilution was added to the corresponding well of the cell plate. After the addition of the tested compound, the cells were incubated at 37° C. in an atmosphere of 5% CO2 for 24 hrs. At the end, 10 μL of CCK-8 solution was added to each well of the plate and incubated for 1-4 hrs. The plates were read at 450 nm on the microplate reader (BioTek Synergy 1MF). The readings were normalized to the vehicle cells, and the IC50 was calculated by nonlinear regression analysis using GraphPad Prism 6 software.

[4] = Microsome clearance assay, rat; assay type: in vitro ADME; conditions: 0.5 mg/ml protein, 1 mM NADPH, 60 minutes; for Rat Liver Microsome Clint (μL/min/mg protein): rat liver microsomes, 5 μM; for microsomal CLint at 5 μM: male, Wister, rat, pooled liver microsomes, pH 7.4, rat liver microsomes, read-out: Rat Liver Microsome Clint (μL/min/mg protein)
In short: (§1)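 Pooled liver microsomes (human, male Wistar rat, male CD-1 mouse) at 0.5 mg/ml protein in 0.1M sodium phosphate pH 7.4 with 5 μM test compound and 1 mM NADPH, incubated 60 minutes. Reactions quenched in ice-cold methanol; supernatant analysed by LC/MS/MS (electrospray).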

[5] = target: Mcl-1 protein (residues 171-323) (Homo sapiens (Human), UniProt Q07820); assay: Inhibition of Mcl-1 by fluorescence polarization (FP) competitive binding assay with FAM-Bid tracer; conditions: 2 nM FAM-Bid, 20 nM Mcl-1, 30 min, read-out: Mc1-1 (FP)
Sequence of Mcl-1 protein (residues 171-323) (Q07820 171-323): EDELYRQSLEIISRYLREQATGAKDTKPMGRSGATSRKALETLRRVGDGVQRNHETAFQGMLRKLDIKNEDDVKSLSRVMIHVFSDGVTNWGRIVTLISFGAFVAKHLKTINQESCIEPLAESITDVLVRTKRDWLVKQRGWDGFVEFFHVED
In short: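 Competitive FP binding of compounds against FAM-Bid tracer (final 2 nM) on Mcl-1 (final 20 nM) in PBS with 0.01% BGG and 0.01% Triton X-100, 5% final DMSO.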

[6] = Microsome clearance assay, human; assay type: in vitro ADME; conditions: 0.5 mg/ml protein, 1 mM NADPH, 60 minutes; for Human Liver Microsome Clint (μL/min/mg protein): human liver microsomes, 5 μM; for microsomal CLint at 5 μM: human, pooled liver microsomes, pH 7.4, human liver microsomes, read-out: Human Liver Microsome Clint (μL/min/mg protein)
In short: as §1

[7] = Microsome clearance assay, mouse; assay type: in vitro ADME; conditions: 0.5 mg/ml protein, 1 mM NADPH, 60 minutes; for Mouse Liver Microsome Clint (μL/min/mg protein): mouse liver microsomes, 5 μM; for microsomal CLint at 5 μM: male, CD-1, mouse, pooled liver microsomes, pH 7.4, mouse liver microsomes, read-out: Mouse Liver Microsome Clint (μL/min/mg protein)
In short: as §1

[8] = Kinetic solubility assay in PBS buffer; assay type: physicochemical; conditions: for solubility: PBS buffer, pH 6.5, aqueous buffer, thermodynamic from solid, read-out: Solubility (pH 6.5, μg/mL)
Procedure: Representative Compounds of the Disclosure were tested in a kinetic solubility assay in PBS buffer. PBS buffer was prepared by dissolving 4.86 g of potassium dihydrogen phosphate and 5.09 g of disodium hydrogen phosphate dodecahydrate in 1 L of ultrapure water (final pH 6.5). 0.5 mg of test sample was dissolved in 1 mL of methanol and the stock solution was transferred into 2 mL EP tube, and evaporated at 50° C. for 3 h. To the tube was added 1 mL of PBS buffer and the mixture was stirred and shaken for 1-2 h. The solution was allowed to stand overnight and then filtered before HPLC analysis. Another 1.5 mg of the sample was dissolved in 3 mL of methanol to prepare a calibration curve with a series of concentration range of 5-500 μM. The solubility of each sample was determined by the measured peak area in HPLC.

[9] = read-out: MV-4-11 IC50 (5% FBS), MV-4-11 cells, 5% FBS, 24 hrs, CCK-8
[10] = Homo sapiens, MV4-11, 24 h, read-out: MV-4-11 IC50 (5% FBS, nM), MV-4-11 cells, 5% FBS, 24 hrs, CCK-8

IC50 ([1]; 24 hrs)	IC50 [3, 9]	Rat Liver Microsome Clint (μL/min/mg protein) [4]	IC50 [5]	Human Liver Microsome Clint (μL/min/mg protein) [6]	Mouse Liver Microsome Clint (μL/min/mg protein) [7]	solubility [8]	IC50 ([1]; Homo sapiens, NCI-H929, 24 h)	IC50 [3, 10]	microsomal CLint at 5 μM [4]	microsomal CLint at 5 μM [6]	microsomal CLint at 5 μM [7]	Solubility (pH 6.5, μg/mL) ([8]; PBS buffer pH 6.5)	SMILES	IC50 ([2]; 24 hours)	IC50 ([2]; Homo sapiens, OPM-2, 24 h)
19 nM	5.4 nM	19.6 μL/min/mg protein	2 nM	<2.8 μL/min/mg protein	28.0 μL/min/mg protein	–	–	–	–	–	–	–	Cc1c(C(=O)O)n2c3ccc(Cl)c(c13)-c1c(nn(C)c1C)CSCc1cc(n(C)n1)CSc1cc(c3ccc(F)cc3c1)OCCC2 (atropisomer, axis not shown) [Cpd. No. 15, (R)-(Z)-1^5-chloro-9^6-fluoro-1^3,2^1,2^5,6^1-tetramethyl-1^1H,2^1H,6^1E-10-oxa-4,8-dithia-1(4,1)-indola-2(4,3),6(3,5)-dipyrazola-9(3,1)-naphthalenacyclotridecaphane-1^2-carboxylic acid]	52 nM	–
–	–	–	–	–	–	< 1 µg/mL	47 nM	29 nM	16.6 µL/min/mg	< 2.8 µL/min/mg	20.8 µL/min/mg	–	Cc1c2c(nn1C)CSCc1cc(n(C)n1)CSc1cc(c3ccccc3c1)OCCCc1c(C(=O)O)n(C)c3c-2c(Cl)ccc13 [AZD5991, (Z)-16-chloro-11,21,25,61-tetramethyl-11H,21H,61H-10-oxa-4,8-dithia-1(7,3)-indola-2(4,3),6(3,5)-dipyrazola-9(3,1)-naphthalenacyclotridecaphane-12-carboxylic acid, reference compound]	–	148 nM
–	–	–	14 nM	–	–	–	611 nM	45 nM	–	–	–	–	Cc1c(C(=O)O)n2c3ccc(C#N)c(c13)-c1c(nn(C)c1C)CSCc1cc(n(C)n1)CSc1cc(c3ccc(F)cc3c1)OCCC2 [Cpd. No. 20, (Z)-1^5-cyano-9^6-fluoro-1^3,2^1,2^5,6^1-tetramethyl-1^1H-1,2^1H,6^1H-10-oxa-4,8-dithia-1(4,1)-indola-2(4,3),6(3,5)-dipyrazola-9(3,1)-naphthalenacyclotridecaphane-1^2-carboxylic acid]	–	613 nM
33 nM	–	58.8 μL/min/mg protein	17 nM	15.8 μL/min/mg protein	48.4 μL/min/mg protein	–	–	43 nM	–	–	–	2 μg/mL	Cc1c(C(=O)O)n2c3ccc(Cl)c(c13)-c1c(nn(C)c1C)CSCc1cc(n(C)n1)CSc1cc(c3ccccc3c1)OCCC2 [Cpd. No. 5, (Z)-1^5-chloro-1^3,2^1,2^5,6^1-tetramethyl-1^1H,2^1H,6^1H-10-oxa-4,8-dithia-1(4,1)-indola-2(4,3), 6(3,5)-dipyrazola-9(3,1)-naphthalenacyclotridecaphane-1^2-carboxylic acid]	192 nM	–
39 nM	29 nM	21.0 μL/min/mg protein	9 nM	<2.8 μL/min/mg protein	23.6 μL/min/mg protein	–	–	–	–	–	–	–	Cc1c(C(=O)O)n2c3ccc(Cl)c(c13)-c1c(nn(C)c1C)CSCc1cc(n(C)n1)CSc1cc(c3ccccc3c1)OCCC2 (atropisomer, axis not shown) [Cpd. No. 6, (R)-(Z)-1^5-chloro-1^3,2^1,2^5,6^1-tetramethyl-1^1H,2^1H,6^1H-10-oxa-4,8-dithia-1(4,1)-indola-2(4,3), 6(3,5)-dipyrazola-9(3,1)-naphthalenacyclotridecaphane-1^2-carboxylic acid]	136 nM	–
–	–	–	14 nM	–	–	< 1 µg/mL	300 nM	–	14.2 µL/min/mg	12.8 µL/min/mg	41.2 µL/min/mg	–	CNC(=O)Cn1nc(C)c2c1CSCc1cc(n(C)n1)CSc1cc(c3ccccc3c1)OCCCn1c(C(=O)O)c(C)c3c-2c(Cl)ccc31 [Cpd. No. 26, (Z)-1^5-chloro-1^3,2^3,6^1-trimethyl-2^1-(2-(methylamino)-2-oxoethyl)-1^1H,2^1H,6^1H-10-oxa-4,8-dithia-1(4,1)-indola-2(4,5),6(3,5)-dipyrazola-9(3,1)-naphthalenacyclotridecaphane-1^2-carboxylic acid]	–	992 nM
–	–	–	15 nM	–	–	< 1 µg/mL	63 nM	93 nM	22.6 µL/min/mg	22.2 µL/min/mg	42 µL/min/mg	–	Cc1c(C(=O)O)n2c3ccc(Cl)c(c13)-c1c(nn(C)c1C(F)F)CSCc1cc(n(C)n1)CSc1cc(c3ccc(F)cc3c1)OCCC2 [Cpd. No. 18, (Z)-1^5-chloro-2^5-(difluoromethyl)-9^6-fluoro-1^3,2^1,6^1-trimethyl-1^1H,2^1H,6^1H-10-oxa-4,8-dithia-1(4,1)-indola-2(4,3),6(3,5)-dipyrazola-9(3,1)-naphthalenacyclotridecaphane-1^2-carboxylic acid]	–	189 nM
–	–	–	16 nM	–	–	94 µg/mL (≈ 119 µM)	253 nM	–	12.6 µL/min/mg	< 2.8 µL/min/mg	21.4 µL/min/mg	–	Cc1c(C(=O)O)n2c3ccc(Cl)c(c13)-c1c(nn(C)c1C(F)F)CN(S(C)(=O)=O)Cc1cc(n(C)n1)CSc1cc(c3ccc(F)cc3c1)OCCC2 [Cpd. No. 45, (Z)-1^5-chloro-2^5-(difluoromethyl)-9^6-fluoro-1^3,2^1,6^1-trimethyl-4-(methylsulfonyl)-1^1H,2^1H,6^1H-10-oxa-8-thia-4-aza-1(4,1)-indola-2(4,3),6(3,5)-dipyrazola-9(3,1)-naphthalenacyclotridecaphane-1^2-carboxylic acid]	–	350 nM
28 nM	28 nM	27.2 μL/min/mg protein	19 nM	5.0 μL/min/mg protein	28.6 μL/min/mg protein	10 µg/mL (≈ 14.5 µM)	–	–	–	–	–	–	Cc1c(C(=O)O)n2c3ccc(Cl)c(c13)-c1c(nn(C)c1C)CSCc1cc(n(C)n1)CSc1cc(c3ccc(F)cc3c1)OCCC2 [Cpd. No. 14, (Z)-1^5-chloro-9^6-fluoro-1^3,2^1,2^5,6^1-tetramethyl-1^1H,2^1H,6^1E-10-oxa-4,8-dithia-1(4,1)-indola-2(4,3),6(3,5)-dipyrazola-9(3,1)-naphthalenacyclotridecaphane-1^2-carboxylic acid]	52 nM	–
